The structures appear in SMILES notation.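 Where inhibition never reached the appropriate level, the endpoint shown equals the highest concentration tested. Otherwise, values were interpolated linearly from a five-concentration, 48-hour dose response in 96-well plates. Here, GI50 denotes the concentration required for 50% inhibition of growth. TGI: total growth inhibition.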

Test systems include CCRF-CEM leukemia; A498 renal; RXF 393 renal; LOX IMVI melanoma; UO-31 renal; T-47D breast; NCI-H226 lung; MOLT-4 leukemia; NCI-H23 lung; SK-MEL-28 melanoma.
Holding throughout (test): NCI-60 cell line screen, 48 h

On to `C[C@@H](Oc1cc(-c2cnn(C3CCNCC3)c2)cnc1N)c1c(Cl)cc(F)cc1Cl`, for which the GI50 in the assay on CCRF-CEM leukemia is 0.504 µM; with A498 renal, 1.3 µM; with RXF 393 renal, 1.5 µM; in the assay with LOX IMVI melanoma, 1.37 µM; in the assay with UO-31 renal, 3.16 µM; in the assay with T-47D breast, 1.74 µM. Moreover, the GI50 in the assay on NCI-H226 lung is 2.25 µM; in the assay on MOLT-4 leukemia, 0.866 µM; in the assay on NCI-H23 lung, 1.93 µM; in the assay with SK-MEL-28 melanoma, 1.56 µM. Besides, the TGI turned out to be 9.88 µM in the assay with CCRF-CEM leukemia; 3.82 µM with A498 renal; 3.09 µM with RXF 393 renal; 3.21 µM with LOX IMVI melanoma; 13.2 µM in the assay on UO-31 renal; 4.58 µM with T-47D breast. Besides, the TGI with NCI-H226 lung was 9.87 µM; with MOLT-4 leukemia, 7.71 µM; with NCI-H23 lung, 14.8 µM; in the assay with SK-MEL-28 melanoma, 3.17 µM.

As for `CC(=O)/C=C/c1ccc(N(CCO)Cc2ccc(C(C)(C)C)cc2)cc1`, the GI50 with CCRF-CEM leukemia is 49 µM; in the assay with A498 renal, 113 µM; in the assay on RXF 393 renal it was 65.5 µM; in the assay with LOX IMVI melanoma, 28.3 µM; with UO-31 renal it was 22.5 µM; in the assay with T-47D breast, 31 µM. Further, the GI50 in the assay with NCI-H226 lung is 73.3 µM; with MOLT-4 leukemia, 30.1 µM; with NCI-H23 lung, 63.7 µM; in the assay on SK-MEL-28 melanoma, 58.8 µM. For the same compound, the TGI with CCRF-CEM leukemia was determined as 208 µM; in the assay on A498 renal it was 236 µM; with RXF 393 renal, 208 µM; with LOX IMVI melanoma, 134 µM; in the assay on UO-31 renal it was 122 µM; in the assay with T-47D breast, 161 µM. Moreover, the TGI with NCI-H226 lung is 248 µM; in the assay on MOLT-4 leukemia, 142 µM; in the assay on NCI-H23 lung, 235 µM; in the assay on SK-MEL-28 melanoma, 201 µM.

Turning to `CCC(=C(c1ccc(OCCN2CCCC2)cc1)c1ccc(OCCN2CCCC2)cc1)c1ccc(Cl)cc1`, the GI50 was 0.601 µM with CCRF-CEM leukemia; 1.28 µM in the assay on A498 renal; 0.545 µM with RXF 393 renal; 0.54 µM with LOX IMVI melanoma; 0.5 µM in the assay with UO-31 renal; 0.498 µM in the assay on T-47D breast. The GI50 is 0.735 µM with NCI-H226 lung, 0.592 µM in the assay on MOLT-4 leukemia, 0.667 µM with NCI-H23 lung and 0.571 µM in the assay with SK-MEL-28 melanoma. The TGI was 1.58 µM in the assay on CCRF-CEM leukemia; 2.82 µM with A498 renal; 1.04 µM in the assay on RXF 393 renal; 1.02 µM in the assay with LOX IMVI melanoma; 0.965 µM with UO-31 renal; 1.21 µM in the assay with T-47D breast. Also, the TGI in the assay on NCI-H226 lung amounted to 1.63 µM; with MOLT-4 leukemia it was 1.32 µM; in the assay on NCI-H23 lung it was 1.38 µM; with SK-MEL-28 melanoma it was 1.06 µM.

Regarding `N/C(=N/S(=O)(=O)c1cc(C(=O)Nc2ccc(F)cc2)c(Cl)cc1SCc1ccccc1)Nc1ccccc1O`, the GI50 with CCRF-CEM leukemia is 1.81 µM; with A498 renal it was 16.3 µM; in the assay on RXF 393 renal, 1.93 µM; in the assay with LOX IMVI melanoma, 1.76 µM; in the assay with UO-31 renal, 17.3 µM; in the assay on T-47D breast it was 7.3 µM. Also, the GI50 is 16.3 µM in the assay with NCI-H226 lung, 1.55 µM with MOLT-4 leukemia, 2.04 µM with NCI-H23 lung and 2.14 µM in the assay on SK-MEL-28 melanoma. Further, the TGI with CCRF-CEM leukemia worked out at 3.79 µM; with A498 renal it was 30.5 µM; in the assay with RXF 393 renal, 3.94 µM; in the assay with LOX IMVI melanoma, 3.41 µM; in the assay on UO-31 renal it was 37.4 µM; in the assay on T-47D breast it was 28.6 µM. The TGI was determined as 30.9 µM in the assay on NCI-H226 lung, 2.99 µM in the assay with MOLT-4 leukemia, 3.86 µM in the assay on NCI-H23 lung and 4.33 µM in the assay with SK-MEL-28 melanoma.

As for `COc1ccc2c(c1)C(=O)c1c-2n(CCCCl)c(=O)c2cc(N)ccc12`, the GI50 in the assay on CCRF-CEM leukemia was above 44.5 µM; with A498 renal it was above 100 µM; in the assay on RXF 393 renal, above 57.3 µM; with LOX IMVI melanoma it was 98.2 µM; in the assay with UO-31 renal it was above 100 µM; with T-47D breast, above 100 µM. For the same compound, the GI50 in the assay with NCI-H226 lung was above 80.7 µM; with MOLT-4 leukemia, above 54.6 µM; in the assay on NCI-H23 lung it was above 100 µM; in the assay with SK-MEL-28 melanoma, above 100 µM. The TGI was above 59.4 µM in the assay with CCRF-CEM leukemia; above 100 µM with A498 renal; above 100 µM in the assay with RXF 393 renal; above 100 µM in the assay on LOX IMVI melanoma; above 100 µM in the assay with UO-31 renal; above 100 µM in the assay with T-47D breast. For the same compound, the TGI with NCI-H226 lung, with MOLT-4 leukemia, in the assay with NCI-H23 lung and with SK-MEL-28 melanoma was above 100 µM in each case.

Turning to `CC(C)(C)OC(=O)N1Cc2cc3ccccc3nc2C1CO` (stereo not given), the GI50 in the assay on CCRF-CEM leukemia, in the assay on A498 renal, in the assay with RXF 393 renal, in the assay on LOX IMVI melanoma, with UO-31 renal and with T-47D breast was above 100 µM each time. For the same compound, the GI50 with NCI-H226 lung, in the assay with MOLT-4 leukemia, with NCI-H23 lung and in the assay with SK-MEL-28 melanoma was above 100 µM throughout. The TGI in the assay on CCRF-CEM leukemia, with A498 renal, with RXF 393 renal, in the assay on LOX IMVI melanoma, in the assay on UO-31 renal and with T-47D breast was above 100 µM throughout. In addition, the TGI in the assay on NCI-H226 lung, in the assay with MOLT-4 leukemia, in the assay on NCI-H23 lung and with SK-MEL-28 melanoma was above 100 µM throughout.

Consider `Cc1nn(-c2ccccc2)c2nc(C)n(-c3ccc(Br)cc3)c(=O)c12`, for which the GI50 with CCRF-CEM leukemia is 0.411 µM; in the assay on A498 renal, 0.219 µM; in the assay with RXF 393 renal, 0.286 µM; in the assay on LOX IMVI melanoma it was 0.51 µM; with UO-31 renal, 0.631 µM; with T-47D breast, 0.427 µM. Also, the GI50 was 1.01 µM in the assay with NCI-H226 lung, 0.53 µM in the assay on MOLT-4 leukemia, 0.823 µM in the assay with NCI-H23 lung and 3.46 µM in the assay on SK-MEL-28 melanoma. In addition, the TGI with CCRF-CEM leukemia was above 100 µM; with A498 renal, 0.816 µM; with RXF 393 renal, 0.972 µM; in the assay with LOX IMVI melanoma it was above 100 µM; in the assay on UO-31 renal, 36.7 µM; in the assay with T-47D breast it was above 70.5 µM. Further, the TGI in the assay on NCI-H226 lung, in the assay on MOLT-4 leukemia, with NCI-H23 lung and with SK-MEL-28 melanoma was above 100 µM each time.
